Reference: patent US10294275B2, “Site-selective functionalization of glycopeptide antibiotics” (Yale University, priority 2012, dated 2019)
Converted amounts (≈) assume the structure as drawn.

Experiments:
[1] = system: methicillin-susceptible S. aureus, ATCC 29213; test: Minimum inhibitory concentration against MSSA; type: cell-based; conditions: for MIC, MSSA: methicillin-susceptible S. aureus, ATCC 29213
Source text: (§1) The chemistry described above enabled direct synthesis of eleven previously unknown analogs of 3. The minimum inhibitory concentrations (MICs) for the new analogs as antibacterial agents as determined.

[2] = system: methicillin-resistant S. aureus, ATCC 43300; test: Minimum inhibitory concentration against MRSA; type: cell-based; conditions: for MIC, MRSA: methicillin-resistant S. aureus, ATCC 43300
Source text: as §1

[3] = system: vancomycin-susceptible enterococci, ATCC 29212; test: Minimum inhibitory concentration against VSE; type: cell-based; conditions: for MIC, VSE: vancomycin-susceptible enterococci, ATCC 29212
Source text: as §1

[4] = system: vancomycin-resistant enterococci (VanB), ATCC 51299; test: Minimum inhibitory concentration against VRE (VanB); type: cell-based; conditions: for MIC, VRE (VanB): vancomycin-resistant enterococci, ATCC 51299
Source text: as §1

[5] = system: vancomycin-resistant enterococci (VanA), MMX 486; test: Minimum inhibitory concentration against VRE (VanA); type: cell-based; conditions: for MIC, VRE (VanA): MMX 486, vancomycin and teicoplanin resistant; for activity against VRE (VanA) strain, in words: compared with vancomycin and teicoplanin
Source text: as §1

Staphylococcus aureus = conditions: cited from earlier work

Compound | MIC ([1]; Staphylococcus aureus, read-out: MIC, MSSA) | MIC ([2]; Staphylococcus aureus, read-out: MIC, MRSA) | MIC ([3]; read-out: MIC, VSE) | MIC ([4]; Enterococcus, read-out: MIC, VRE (VanB)) | MIC ([5]; Enterococcus, VRE, read-out: MIC, VRE (VanA)) | in vitro MIC against Staphylococcus aureus (Staphylococcus aureus) | MIC, MSSA [1] | MIC, MRSA [2] | MIC, VSE [3] | MIC, VRE (VanB) [4] | MIC, VRE (VanA) [5] | activity against VRE (VanA) strain, in words [5] | activity against VRE (VanB) strain, in words ([4]; compared with vancomycin and teicoplanin)
CN[C@H](CC(C)C)C(=O)N[C@H]1C(=O)N[C@@H](CC(N)=O)C(=O)N[C@H]2C(=O)N[C@H]3C(=O)N[C@H](C(=O)N[C@H](C(=O)O)c4cc(O)cc(O)c4-c4cc3ccc4O)[C@H](O)c3ccc(c(Cl)c3)Oc3cc2cc(c3O[C@@H]2O[C@H](CO)[C@@H](O)[C@H](O)[C@H]2O[C@H]2C[C@](C)(N)[C@H](O)[C@H](C)O2)Oc2ccc(cc2Cl)[C@H]1O [Vancomycin, vancomycin, reference compound] | 0.5 µg/mL (≈ 0.345 µM) | 1 µg/mL (≈ 0.69 µM) | 2 µg/mL (≈ 1.38 µM) | 16 µg/mL (≈ 11 µM) | > 64 µg/mL | 0.25 to 10 µg/mL | – | – | – | – | – | – | –
CCCCCC/C=C/c1cc2ccc1Oc1cc3cc(c1O[C@@H]1O[C@H](CO)[C@@H](O)[C@H](O)[C@H]1NC(=O)CCCCCCC(C)C)Oc1ccc(cc1Cl)[C@@H](O[C@@H]1O[C@H](CO)[C@@H](O)[C@H](O)[C@H]1NC(C)=O)[C@@H]1NC(=O)[C@H](NC(=O)[C@@H]3NC(=O)[C@H]3NC(=O)[C@@H](C2)NC(=O)[C@H](N)c2ccc(O)c(c2)Oc2cc(O)cc3c2)c2ccc(O)c(c2)-c2c(O[C@H]3O[C@H](CO)[C@@H](O)[C@H](O)[C@@H]3O)cc(O)cc2[C@@H](C(=O)O)NC1=O [Compound 20] | – | – | – | – | – | – | 8 µg/mL (≈ 4.09 µM) | 4 µg/mL (≈ 2.05 µM) | 0.5 µg/mL (≈ 0.256 µM) | 0.25 µg/mL (≈ 0.128 µM) | 1 µg/mL (≈ 0.511 µM) | quite high (significant) potency | –
CC(=O)N[C@H]1[C@H](O[C@@H]2c3ccc(c(Cl)c3)Oc3cc4cc(c3O[C@@H]3O[C@H](CO)[C@@H](O)[C@H](O)[C@H]3NC(=O)CCCCCCC(C)C)Oc3ccc(cc3-c3ccc(-c5ccccc5)cc3)C[C@H]3NC(=O)[C@H](N)c5ccc(O)c(c5)Oc5cc(O)cc(c5)[C@H](NC3=O)C(=O)N[C@H]4C(=O)N[C@H]3C(=O)N[C@@H]2C(=O)N[C@H](C(=O)O)c2c(Br)c(O)cc(O[C@H]4O[C@H](CO)[C@@H](O)[C@H](O)[C@@H]4O)c2-c2cc3ccc2O)O[C@H](CO)[C@@H](O)[C@@H]1O [Compound 17] | – | – | – | – | – | – | 4 µg/mL (≈ 1.93 µM) | 2 µg/mL (≈ 0.963 µM) | 1 µg/mL (≈ 0.482 µM) | 0.5 µg/mL (≈ 0.241 µM) | 32 µg/mL (≈ 15.4 µM) | – | –
CC(=O)N[C@H]1[C@H](O[C@@H]2c3ccc(c(Cl)c3)Oc3cc4cc(c3O[C@@H]3O[C@H](CO)[C@@H](O)[C@H](O)[C@H]3NC(=O)CCCCCCC(C)C)Oc3ccc(cc3-c3ccoc3)C[C@H]3NC(=O)[C@H](N)c5ccc(O)c(c5)Oc5cc(O)cc(c5)[C@H](NC3=O)C(=O)N[C@H]4C(=O)N[C@H]3C(=O)N[C@@H]2C(=O)N[C@H](C(=O)O)c2cc(O)cc(O[C@H]4O[C@H](CO)[C@@H](O)[C@H](O)[C@@H]4O)c2-c2cc3ccc2O)O[C@H](CO)[C@@H](O)[C@@H]1O [Compound 18] | – | – | – | – | – | – | 0.25 µg/mL (≈ 0.131 µM) | 0.25 µg/mL (≈ 0.131 µM) | 0.12 µg/mL (≈ 0.0628 µM) | 0.12 µg/mL (≈ 0.0628 µM) | 32 µg/mL (≈ 16.7 µM) | enhancement of activity | enhancement of activity
